# System: PLA2 derived from plasma, sperm, platelets, human synovial fluid and N. naja cobra venom
# Test: In vitro inhibition of PLA2 from a variety of sources (FIG. 8)
# Format: biochemical
compound,measurement,value
"CCCCCCC(C/C=C\CCCCCCCC(=O)O)OC(=O)CCCCCCCCC(=O)O (stereo not shown) [RISE-1, Ricinoleic Acid--Sebacyl Ester]",in vitro inhibition of PLA2 from different sources,"dose related, selective in vitro inhibition"

# Source: patent US5659055A, “Cytoprotective fatty moiety compounds” (Virginia Commonwealth University, priority 1995, dated 1997)
